Results from patent publication US5225528A, “Cyclic hexapeptide oxytocin antagonists” (priority 1990, dated 1993).
Read-outs that look alike come from different tables or passages of the source. Numbered stars: 1 amine (or outer) side, 2 acyl side, 3 side chain; on linkers, the order of the positions; unused ones are H or OH. Square brackets hold non-standard residues; d marks the D form. Peptide text beside a SMILES is read from it. * marks the point of attachment. X9 = O=C([C@@H]1CN(P(=O)(OCc2ccccc2)OCc2ccccc2)CCN1[*:1])[*:2]; dPip(4-aza,4-Cbz) = O=C(O)[C@H]1CN(C(=O)OCc2ccccc2)CCN1; X2 = O=C(OCc1ccccc1)N1CCN([*:1])[C@H](C(=O)[*:2])C1; X4 = O=C([C@@H](Cc1cn(COCc2ccccc2)cn1)N[*:1])[*:2]; dPhe(4-NH2) = Nc1ccc(C[C@@H](N)C(=O)O)cc1; dPiz(1,6-dehydro) = O=C(O)[C@H]1CCC=NN1; d2Nal = N[C@H](Cc1ccc2ccccc2c1)C(=O)O; NMeI = CC[C@H](C)[C@H](NC)C(=O)O; Pip(4-aza) = O=C(O)[C@@H]1CNCCN1; X6 = O=C([C@H]1CCCNN1[*:1])[*:2]; dNMeF = CN[C@H](Cc1ccccc1)C(=O)O; hPhe = N[C@@H](CCc1ccccc1)C(=O)O; Pip = O=C(O)[C@@H]1CCCCN1; dPip = O=C(O)[C@H]1CCCCN1; ClZ = O=C(OCc1ccccc1Cl)*; Orn = NCCC[C@H](N)C(=O)O; dNMeA = CN[C@H](C)C(=O)O; Cbz = O=C(OCc1ccccc1)*; Boc = CC(C)(C)OC(=O)*; Dha = C=C(N)C(=O)O

What was measured:
AVP-V2 sites = molecular target: T1, AVP-V2 sites (Rattus norvegicus, UniProt Q00788); experiment: [^3 H]AVP binding to crude membrane preparation of male rat kidney medulla (AVP-V2 sites); conditions: for inhibition at 10 µM: 0.5 h, read-out: [^3 H]-AVP-V2: percent inhibition of radioligand at the given concentration
T1 construct: male rat liver (AVP-V1 sites) or kidney medulla (AVP-V2 sites); from tissue; host or cells: male rat kidney medulla, crude membranes
Description: (§1) Nonspecific binding (5-10% of the total binding) was determined using 10 μM unlabeled AVP, and the binding reaction was terminated by filtration as described above for the [^3 H]OT binding assay.

AVP-V1 sites = molecular target: T2, AVP-V1 sites (Rattus norvegicus, UniProt P30560); experiment: [^3 H]AVP binding to crude membrane preparation of male rat liver (AVP-V1 sites)
T2 construct: crude membrane preparation of male rat liver (AVP-V1 sites); from tissue; host or cells: male rat liver, crude membranes
Description: as §1

uterine OT receptors = molecular target: T3, uterine OT receptors (Rattus norvegicus, UniProt P70536); experiment: [^3 H]OT binding to uterine OT receptors, crude membrane preparation of uteri from DES-treated rats; conditions: for inhibition at 1 µM: @ 1,000 (nM)
T3 construct: from tissue; host or cells: uterus of DES-treated rats, crude membranes
T3 sequence (P70536 1-388): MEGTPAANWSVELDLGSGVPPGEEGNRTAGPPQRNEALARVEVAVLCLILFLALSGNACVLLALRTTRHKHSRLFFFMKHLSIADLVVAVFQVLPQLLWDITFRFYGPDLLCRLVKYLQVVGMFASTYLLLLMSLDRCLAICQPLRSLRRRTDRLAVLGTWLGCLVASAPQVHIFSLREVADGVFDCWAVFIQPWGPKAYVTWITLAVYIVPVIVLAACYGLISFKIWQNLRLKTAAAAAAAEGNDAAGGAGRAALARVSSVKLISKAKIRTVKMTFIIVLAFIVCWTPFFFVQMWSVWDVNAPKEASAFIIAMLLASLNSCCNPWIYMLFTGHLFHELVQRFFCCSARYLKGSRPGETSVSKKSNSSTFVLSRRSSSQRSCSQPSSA
Description: Competition studies were conducted at equilibrium (60 minutes; 22° C.) using 1 nM [^3 H]OT in the following assay buffer: 50 mM Tris-HCl, 5 mM MgCl2, and 0.1% BSA, pH 7.4.

[1] = rat kidney medulla membranes, 2 nM [^3 H]AVP, read-out: Receptor Binding Results IC50 (nM) [^3 H]-AVP-V2
[2] = Receptor Binding Results IC50 (nM) [^3 H]-AVP-V1
[3] = rat uterus membranes, 1 nM [^3 H]OT, read-out: Receptor Binding Results IC50 (nM) [^3 H]OT
[4] = 1 h, read-out: [^3 H]OT: percent inhibition of radioligand at the given concentration
[5] = read-out: Receptor Binding Results IC50 (nM) [^3 H]-AVP-V1

T2 sequence (P30560 whole entry): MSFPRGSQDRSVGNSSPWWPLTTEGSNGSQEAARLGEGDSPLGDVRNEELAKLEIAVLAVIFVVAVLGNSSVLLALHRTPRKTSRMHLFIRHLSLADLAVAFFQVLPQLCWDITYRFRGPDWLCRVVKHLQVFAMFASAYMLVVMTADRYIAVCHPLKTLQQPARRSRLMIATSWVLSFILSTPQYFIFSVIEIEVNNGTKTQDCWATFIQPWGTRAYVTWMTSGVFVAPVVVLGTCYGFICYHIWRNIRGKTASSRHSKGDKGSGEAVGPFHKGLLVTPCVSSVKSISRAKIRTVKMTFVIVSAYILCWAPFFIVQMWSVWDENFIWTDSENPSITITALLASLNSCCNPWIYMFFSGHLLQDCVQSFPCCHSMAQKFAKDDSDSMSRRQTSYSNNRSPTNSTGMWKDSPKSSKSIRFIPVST
T1 sequence (Q00788 whole entry): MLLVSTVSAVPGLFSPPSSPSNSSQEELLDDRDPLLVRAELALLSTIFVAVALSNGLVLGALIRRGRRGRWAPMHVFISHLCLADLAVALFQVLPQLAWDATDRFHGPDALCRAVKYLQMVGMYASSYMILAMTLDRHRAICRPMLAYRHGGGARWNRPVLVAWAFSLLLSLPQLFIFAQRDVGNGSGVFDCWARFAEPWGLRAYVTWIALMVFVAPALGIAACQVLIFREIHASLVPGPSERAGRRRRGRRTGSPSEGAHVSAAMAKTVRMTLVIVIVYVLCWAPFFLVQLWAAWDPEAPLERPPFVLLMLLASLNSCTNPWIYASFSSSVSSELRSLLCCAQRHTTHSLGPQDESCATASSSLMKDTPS

Compound	IC50 (AVP-V2 sites; [1])	IC50 (AVP-V1 sites; [2])	IC50 (uterine OT receptors; [3])	also measured
CN1C(=O)[C@@H]2CCCCN2C(=O)[C@H]2CCCCN2C(=O)[C@H](CCc2ccccc2)NC(=O)[C@@H](Cc2c[nH]c3ccccc23)NC(=O)[C@@H]2CCCN2C(=O)[C@H]1Cc1ccccc1 [Example 133, c-[D-Tryptophanyl-L-homophenylalanyl-D-pipecolyl-L-pipecolyl-D-(N-methyl)phenylalanyl-prolyl]] (cyclo(P[dW][hPhe][dPip][Pip][dNMeF]))	10000 nM	10000 nM	3600 nM	
CC[C@H](C)[C@@H]1NC(=O)[C@@H](Cc2ccccc2)NC(=O)[C@@H]2CCCN2C(=O)[C@@H](Cc2ccc(N)cc2)NC(=O)[C@@H]2CCCCN2C(=O)[C@H]2CCCCN2C1=O [Example 48, Cyclo[D-phenylalanyl-L-isoleucyl-D-pipecolyl-L-pipecolyl-D-(p-amino)phenylalanyl-L-prolyl]] (cyclo(I[dPip][Pip][dPhe(4-NH2)]P[dF]))	> 10000 nM	10000 nM	250 nM	
CC[C@H](C)[C@@H]1NC(=O)[C@@H](Cc2ccccc2)NC(=O)[C@@H]2CCCN2C(=O)[C@@H](Cc2ccccc2)NC(=O)[C@@H]2CCCCN2C(=O)[C@H]2CN(C(=O)OCc3ccccc3)CCN2C1=O [Example 83, c-[D-Phenylalanyl-L-isoleucinyl-D-piperazin-2-yl-(4-Cbz)-L-pipecolyl-D-phenylalanyl-L-prolyl]] (cyclo(I[dPip(4-aza,4-Cbz)][Pip][dF]P[dF]))	10000 nM	10000 nM	940 nM	
CC[C@H](C)[C@@H]1NC(=O)[C@@H](Cc2ccc3ccccc3c2)NC(=O)[C@@H]2CCCN2C(=O)[C@@H](Cc2ccccc2)N(C)C(=O)[C@@H]2CN(C(=O)OCc3ccccc3)CCN2C(=O)[C@H]2CCCCN2C1=O [Example 169, c-[D-2-Naphthylalanyl-L-isoleucinyl-D-pipecolyl-L-piperazin-2-yl(4-Cbz)-D-(Nα-methyl)-phenylalanyl-L-prolyl]] (cyclo(I[dPip][X2][dNMeF]P[d2Nal]))	10000 nM	> 10000 nM		inhibition at 0.01 µM (uterine OT receptors; 1 h, @ 10 (nM), read-out: [^3 H]OT: percent inhibition of radioligand at the given concentration): 74%
C=C1NC(=O)[C@H]2CCCN2C(=O)[C@H]([C@@H](C)CC)NC(=O)[C@@H](Cc2ccccc2)NC(=O)[C@@H]2CCCN2C(=O)[C@@H](Cc2ccccc2)N(C)C1=O [Example 117, c-[D-Phenylalanyl-L-isoleucyl-D-prolyl-dehydroalanyl-N-methyl-D-phenylalanyl-L-prolyl]] (cyclo([Dha][dNMeF]P[dF]I[dP]))	> 10000 nM	> 10000 nM	> 10000 nM	
CC[C@H](C)[C@@H]1NC(=O)[C@@H](Cc2c[nH]c3ccccc23)NC(=O)[C@@H]2CCCN2C(=O)[C@@H](Cc2ccccc2)N(C)C(=O)[C@H](CCCNC(=O)OC(C)(C)C)NC(=O)[C@H]2CCC=NN2C1=O [Example 126, c-[D-Tryptophanyl-L-isoleucyl-D-Δ-piperazyl (N^δ -Boc)-L-ornithyl-N-methyl-D-phenylalanyl-L-prolyl]] (cyclo(I[dPiz(1,6-dehydro)][Orn](Boc)[dNMeF]P[dW]))		> 1000 nM	15 nM	IC50 (AVP-V2 sites; Receptor Binding Results IC50 (nM) [^3 H]-AVP-V2): 1000 nM
CC[C@H](C)[C@@H]1NC(=O)[C@@H](Cc2ccccc2)NC(=O)[C@@H]2CCCN2C(=O)[C@@H](Cc2ccccc2)N(C)C(=O)[C@H](CC(=O)O)NC(=O)[C@H]2CCCCN2C1=O [Example 116, c-[D-Phenylalanyl-L-isoleucyl-D-pipecolyl-L-aspartyl-N-methyl-D-phenylalanyl-L-prolyl]] (cyclo(D[dNMeF]P[dF]I[dPip]))	> 10000 nM	> 10000 nM	1450 nM	
CC[C@H](C)[C@@H]1NC(=O)[C@@H](Cc2ccccc2)NC(=O)[C@@H]2CCCN2C(=O)[C@@H](CCCCNC(=O)OCc2ccccc2Cl)NC(=O)[C@@H]2CCCCN2C(=O)[C@H]2CCCCN2C1=O [Example 26, Cyclo[D-phenylalanyl-L-isoleucyl-D-pipecolyl-L-pipecolyl-D-(2-chlorocarbobenzyloxy)-lysyl-L-prolyl]] (cyclo(I[dPip][Pip][dK](ClZ)P[dF]))	10000 nM	10000 nM		inhibition at 1 µM (uterine OT receptors; [4]): 86%
CC[C@H](C)[C@@H]1NC(=O)[C@@H](Cc2c[nH]c3ccccc23)NC(=O)[C@@H]2CCCN2C(=O)[C@@H](Cc2c[nH]c3ccccc23)NC(=O)[C@H](CCCNC(=O)OCc2ccccc2)NC(=O)[C@H]2CCCCN2C1=O [Example 36, Cyclo[D-tryptophanyl-L-isoleucyl-D-pipecolyl-L-(carbobenzyloxy)ornithinyl-D-trytophanyl-L-prolyl]] (cyclo(I[dPip][Orn](Cbz)[dW]P[dW]))	10000 nM	> 10000 nM	> 100 nM	
CC[C@H](C)[C@@H]1NC(=O)[C@@H](Cc2ccccc2)NC(=O)[C@@H]2CCCN2C(=O)[C@@H](Cc2ccccc2)N(C)C(=O)[C@H](CO)NC(=O)[C@H]2CCCN2C1=O [Example 114, c-[D-Phenylalanyl-L-isoleucyl-D-prolyl-L-seryl-N-methyl-D-phenylalanyl-L-prolyl]] (cyclo(I[dP]S[dNMeF]P[dF]))	> 10000 nM	> 10000 nM	675 nM	
CC[C@H](C)[C@@H]1NC(=O)[C@@H](Cc2c[nH]c3ccccc23)NC(=O)[C@@H]2CCCN2C(=O)[C@@H](Cc2ccccc2)N(C)C(=O)[C@H](CCCN)NC(=O)[C@H]2CCC=NN2C1=O [Example 127, c-[D-Tryptophanyl-L-isoleucyl-D-Δ-piperazyl-L-ornithyl-N-methyl-D-phenylalanyl L-prolyl]] (cyclo(I[dPiz(1,6-dehydro)][Orn][dNMeF]P[dW]))	330 nM			IC50 (AVP-V1 sites; [5]): 1600 nM; IC50 (uterine OT receptors; Receptor Binding Results IC50 (nM) [^3 H]OT): 22 nM
C-[D,L-3-(3-(5-Methoxy)indolyl)alanyl-L-isoleucyl-D-pipecolyl-L-pipecolyl-D-histidyl-L-prolyl] [Example 156]	> 30000 nM		1100 nM	IC50 (AVP-V1 sites; rat liver membranes, 1 nM [^3 H]AVP, read-out: Receptor Binding Results IC50 (nM) [^3 H]-AVP-V1): > 30000 nM
CC[C@H](C)[C@@H]1NC(=O)[C@@H](Cc2c[nH]c3ccccc23)NC(=O)[C@@H]2CCCN2C(=O)[C@@H](Cc2ccccc2)N(C)C(=O)[C@@H]2CN(P(=O)(OCc3ccccc3)OCc3ccccc3)CCN2C(=O)[C@H]2CCCCN2C1=O [Example 183, c-[D-Tryptophanyl-L-isoleucinyl-D-pipecolyl-L-piperazin-2-yl(4-dibenzylphosphoramidyl)-D-(N^α -Me)phenylalanyl-L-prolyl]] (cyclo(I[dPip][X9][dNMeF]P[dW]))				inhibition at 10 µM (AVP-V2 sites): 71%; IC50 (AVP-V1 sites; Receptor Binding Results IC50 (nM) [^3 H]-AVP-V1, rat liver membranes, 1 nM [^3 H]AVP): > 10000 nM; inhibition at 0.1 µM (uterine OT receptors; [4]): 58%
CC[C@H](C)[C@@H]1NC(=O)[C@@H](Cc2ccccc2)NC(=O)[C@@H]2CCCN2C(=O)[C@@H](Cc2cn(COCc3ccccc3)cn2)NC(=O)[C@@H]2CNCCN2C(=O)[C@H]2CCCCN2C1=O [Example 176, c-[D-Phenylalanyl-L-isoleucinyl-D-pipecolyl-L-piperazin-2-yl-D-histidinyl(BOM)-L-prolyl]] (cyclo([dF]I[dPip][Pip(4-aza)][X4]P))		10000 nM		inhibition at 10 µM (AVP-V2 sites; @ 10,000 (nM)): 81%; inhibition at 1 µM (uterine OT receptors; [4]): 80%
CC[C@H](C)[C@@H]1NC(=O)[C@@H](Cc2ccccc2)NC(=O)[C@@H]2CCCN2C(=O)[C@@H](Cc2c[nH]cn2)NC(=O)[C@@H]2CCCCN2C(=O)[C@H]2CCCNN2C1=O [Example 14, Cyclo[D-phenylalanyl-L-isoleucyl-D-piperazyl-L-pipecolyl-D-histidyl-L-prolyl]] (cyclo(I[X6][Pip][dH]P[dF]))			38 nM	IC50 (AVP-V2 sites; read-out: Receptor Binding Results IC50 (nM) [^3 H]-AVP-V2): > 10000 nM; IC50 (AVP-V1 sites; [5]): 10000 nM
CC[C@H](C)[C@H]1C(=O)N2CCCC[C@@H]2C(=O)N2CCCC[C@H]2C(=O)N(C)[C@H](Cc2ccccc2)C(=O)N2CCC[C@H]2C(=O)N(C)[C@H](C)C(=O)N1C [Example 16, C-[D-(N^α methyl)alanyl-L-(N^α methyl)isoleucyl-D-pipecolyl-L-pipecolyl-D-(N^α methyl)phenylalanyl-L-prolyl]] (cyclo([NMeI][dPip][Pip][dNMeF]P[dNMeA]))	> 10000 nM	> 10000 nM	650 nM	
